Publication PMC8776730 (Nature Communications, 2022)

Molecular target: T1, FAP-α (Homo sapiens, UniProt Q12884)
T1 construct: purchased R&D SYSTEM
T1 sequence (Q12884 1-760): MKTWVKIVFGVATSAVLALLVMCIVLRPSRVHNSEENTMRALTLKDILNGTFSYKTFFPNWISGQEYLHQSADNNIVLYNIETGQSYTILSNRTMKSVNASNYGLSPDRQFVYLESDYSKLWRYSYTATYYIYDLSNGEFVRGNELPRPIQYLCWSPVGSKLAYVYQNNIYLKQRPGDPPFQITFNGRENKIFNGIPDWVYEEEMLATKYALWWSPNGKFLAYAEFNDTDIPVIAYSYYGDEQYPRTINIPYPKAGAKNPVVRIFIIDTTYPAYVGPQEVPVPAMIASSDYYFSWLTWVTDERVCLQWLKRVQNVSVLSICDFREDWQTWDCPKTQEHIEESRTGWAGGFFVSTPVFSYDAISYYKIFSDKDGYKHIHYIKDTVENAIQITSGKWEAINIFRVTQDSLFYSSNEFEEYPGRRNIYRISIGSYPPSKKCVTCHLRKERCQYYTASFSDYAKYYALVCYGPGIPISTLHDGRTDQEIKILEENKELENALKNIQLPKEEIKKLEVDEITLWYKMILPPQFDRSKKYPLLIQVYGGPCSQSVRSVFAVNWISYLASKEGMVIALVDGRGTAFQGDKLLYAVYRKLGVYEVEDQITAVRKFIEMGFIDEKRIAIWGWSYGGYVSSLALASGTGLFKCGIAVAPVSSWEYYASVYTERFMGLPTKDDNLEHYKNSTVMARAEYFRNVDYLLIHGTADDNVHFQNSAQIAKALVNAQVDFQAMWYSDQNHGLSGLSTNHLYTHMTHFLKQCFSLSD
Assay: FAP-α tailoring (cleavage) followed by HPLC and MALDI-TOF
Format: biochemical
Conditions: 100 μM molecule, FAP-α 50 μM, 12 h; buffer 50 mM Tris, 1 M NaCl, 1 mg/mL BSA, pH 7.5; HPLC (M3, M5), MALDI-TOF (M1)
Text: To further investigate the FAP-α specific tailoring and BIVA probe assembly in situ simultaneously (Fig. 4a), the high-performance liquid chromatography (HPLC), TEM, and matrix-assisted laser desorption/ionization time-of-flight (MALDI-TOF) mass spectrometry were applied for the characterizations purpose. To specify the cutting of the response tailoring motif (Gly-Pro-Ala), pre-synthesized molecules of R-M3, M3 and M5 were set as controls. […] Comparing the residues peaks with R-M3, the primary sharp peak at 27.4 min can be identified by the R-M3 control (27.6 min). […] The retention time of M1 after co-incubation with inactivated FAP-α was similar to that of M3 (Supplementary Fig. 14). After hydrolyzed by FAP-α, the residues of M1 in situ assembled into nanofibers structures under the complex buffer (Fig. 4c and Supplementary Fig. 15). […] In order to further evaluate the specificity of M1 for different enzymes, including FAP-α, pepsin, pancreatin, lipase, and BSA, we used ThT (Thioflavin T) as a detection probe (Fig. 4e).
Fig. 4 The FAP-α specific molecule tailoring and inducing in situ assembly. a The illustration the working mechanism of BIVA probe based on FAP-α catalytic hydrolysis. b HPLC curves of M3 and M5 after incubation with FAP-α in buffer. R-M3, M3 and M5 were synthesized controls. The TEM image (c), and the MALDI-TOF (d), results of M1 after tailoring by FAP-α in buffer, the red arrows represent the assembled fibrils of M1 after incubation with FAP-α. e The enzyme specificity of M1 in buffer. Buffer: 50 mM Tris, 1 M NaCl, 1 mg/mL, BSA, pH 7.5; Concentration of M1 and M3: 100 μM; Concentration of FAP-α: 50 μM; incubation time: 12 h. […]

Substance | tailoring (cleavage) by FAP-α
mPEG-GPAKLVFFGC(IR783)GRGD [M1] | cut into two parts of R-M1 and PEG residue
mPEG-GPAKLVFFGCGRGD [M3, the non-labeling molecule of M1 (no IR783)] | totally cleaved
